From PubChem BioAssay (NCI)
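Five concentrations, 48 hours, 96-well plates. TGI: total growth inhibition.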

Experiments:
Assay in all cases: NCI tumour cell line growth inhibition, 48 h
[1] = test system: 786-0 renal
[2] = test system: A549 NSCLC
[3] = test system: U251 CNS
[4] = test system: SK-MEL-2 melanoma
[5] = test system: SF-268 CNS
[6] = test system: XF 498 CNS
[7] = test system: UACC-257 melanoma
[8] = test system: M14 melanoma
[9] = test system: COLO 205 colon
[10] = test system: LOX IMVI melanoma
[11] = test system: CAKI-1 renal
[12] = test system: DLD-1 colon
[13] = test system: A498 renal
[14] = test system: NCI-H226 lung
[15] = test system: SW-620 colon
[16] = test system: OVCAR-4 ovarian
[17] = test system: SNB-75 CNS
[18] = test system: KM20L2 colon
[19] = test system: OVCAR-3 ovarian
[20] = test system: NCI-H460 lung
[21] = test system: RXF 393 renal
[22] = test system: HCT-116 colon
[23] = test system: SNB-19 CNS
[24] = test system: UACC-62 melanoma
[25] = test system: NCI-H522 lung
[26] = test system: SF-539 CNS
[27] = test system: HL-60(TB) leukemia
[28] = test system: KM12 colon
[29] = test system: TK-10 renal
[30] = test system: M19-MEL melanoma
[31] = test system: SF-295 CNS
[32] = test system: NCI-H23 lung
[33] = test system: SN12C renal
[34] = test system: DMS 273 small cell lung
[35] = test system: OVCAR-8 ovarian
[36] = test system: SR leukemia
[37] = test system: SK-OV-3 ovarian
[38] = test system: HT29 colon
[39] = test system: OVCAR-5 ovarian
[40] = test system: IGROV1 ovarian
[41] = test system: SK-MEL-5 melanoma
[42] = test system: MOLT-4 leukemia
[43] = test system: K-562 leukemia
[44] = test system: UO-31 renal
[45] = test system: LXFL 529 NSCLC
[46] = test system: SNB-78 CNS
[47] = test system: HCC-2998 colon
[48] = test system: MALME-3M melanoma
[49] = test system: EKVX NSCLC
[50] = test system: SK-MEL-28 melanoma
[51] = test system: HOP-62 NSCLC
[52] = test system: ACHN renal
[53] = test system: DMS 114 small cell lung
[54] = test system: HOP-92 NSCLC
[55] = test system: CCRF-CEM leukemia
[56] = test system: HOP-18 NSCLC
[57] = test system: HCT-15 colon
[58] = test system: RPMI-8226 leukemia

Measured: TGI

NC(CC(=O)Nc1ccc(Cl)cc1)=Nc1ccccc1
> 100 µM: [1] | [2] | [3] | [4] | [5] | [6] | [7] | [8] | [9] | [10] | [11] | [12] | [13] | [14] | [15] | [16] | [17] | [18] | [19] | [20] | [21] | [22] | [23] | [24] | [25] | [26] | [27] | [28] | [29] | [30] | [31] | [32] | [33] | [34] | [35] | [36] | [37] | [38] | [39] | [40] | [41] | [42] | [43] | [44] | [45] | [46] | [47] | [48] | [49] | [50] | [51] | [52]

O=c1cc(-c2ccccc2)nc(/C=C(\O)c2ccncc2)n1-c1ccccc1
> 100 µM: [1] | [2] | [3] | [4] | [5] | [7] | [53] | [54] | [8] | [9] | [10] | [55] | [11] | [12] | [13] | [14] | [15] | [16] | [17] | [18] | [19] | [20] | [56] | [21] | [22] | [23] | [24] | [25] | [26] | [27] | [28] | [29] | [30] | [57] | [31] | [32] | [33] | [34] | [35] | [37] | [38] | [39] | [40] | [41] | [43] | [44] | [45] | [46] | [47] | [48] | [49] | [50] | [51] | [52]

CCO/C=C1\N=C(C(Cl)c2ccccc2)OC1=O (centres undefined)
> 100 µM: [1] | [2] | [4] | [5] | [6] | [7] | [53] | [54] | [8] | [9] | [10] | [55] | [11] | [12] | [13] | [14] | [15] | [16] | [17] | [18] | [19] | [20] | [21] | [23] | [24] | [25] | [26] | [27] | [28] | [29] | [58] | [30] | [57] | [31] | [32] | [33] | [34] | [35] | [38] | [39] | [40] | [41] | [42] | [43] | [44] | [45] | [46] | [47] | [48] | [49] | [50] | [51] | [52]
